Data on 14 molecules can be found in US20250034108A1, “SODIUM CHANNEL BLOCKERS” (NOVARTIS AG, priority 2023, published 2025).

A value given as a limit tells only on which side of the number the result lay.

Data set [1] addresses T1, human Nav1.5 (Homo sapiens (Human), UniProt Q14524). The data set is described as follows: Qpatch automated patch-clamp, peak Nav1.5 current inhibition, 1 Hz sinus rate, ventricular condition (holding potential -100 mV). The conditions noted are these: CHO-K1 cells stably expressing human Nav1.5, without ATX-II. The format is cell-based. An excerpt: Electrophysiology was used to measure the ionic currents in isolated living cells using automated patch-clamp recording, performed using an automated patch-clamp machine called Qpatch (Sophion Bioscience). Two different assay conditions were used to identify compounds with atrial-selective potential. The 5-Hz AF-like assay has more depolarized holding potential at −85 mV to mimic atrial resting membrane potential (RMP) and was used to identify compounds of strong rate-dependence. Active, rate-dependent compounds were then screened at 1 Hz (i.e., sinus rate) at the holding potential of −100 mV to mimic the ventricular scenario and help identify compounds with the largest potency separation or attenuation from the 5-Hz AF-like assay. Such compounds have the potential for treating AF without the QRS liability inherent to Class Ic drugs.
The sodium current conducted through a cell (via Nav1.5) or electrical signals were processed through a low-pass filter at 5 KHz, re-digitalized and acquired at 20 kHz. Series resistance was not compensated and leak subtraction was performed.
1 to 3 million Chinese Hamster Ovary cells (also known as CHO-K1) stably expressing human Nav1.5 were seeded into […] culture flasks with 25 mL medium (consisting of Gibco Dulbecco's Modified Eagle Medium as a base medium with 1% MEM non-essential amino acids, 400 μg/mL Geneticin, 5 μg/mL puromycin and 10% fetal bovine serum) 48-72 hours prior to the experiments. On the day of the experiment, cells were washed once with phosphate-buffered saline (also known as PBS; Gibco) detached with Detachin™ (Genlantis), and re-suspended in CHO—S-SFM II media (Gibco) at 200,000 cells/mL. The CHO—S-SFM II was replaced with assay solutions prior to the assays. Whole-cell currents were recorded at room temperature in the whole-cell configuration. The external aqueous assay solution (pH=7.4; Osm=307-315) contained the following (the concentration for each component is expressed in parentheses in mM): NaCl (140 mM), KCl (4 mM), CaCl2) (2 mM), MgCl2 (1 mM), 4-(2-hydroxyethyl)-1-piperazineethanesulfonic acid, also known as HEPES (10 mM), and glucose (5 mM). The internal aqueous assay solution (pH=7.2; Osm=292-295) contained the following (the concentration for each component is expressed in parentheses in mM): CsF (110 mM), CsCl (10 mM), NaCl (10 mM), HEPES (10 mM), and ethylene glycolbis(β-aminoethyl ether)-N,N,N′,N′-tetraacetic acid, also known as EGTA (10 mM).
To assess peak Nav1.5 current inhibition mimicking a ventricular condition at sinus rate with or without ATX-II (Nav1.5 IC50 (1 Hz, ATXII) (μM) or (1 Hz, Sinus Rate) (μM)), compounds were first prepared at 10 mM in DMSO, and cells were pre-incubated with test compounds at each concentration for 3 min. in an ascending order of 0, 0.37, 1.1, 3.3, 10 and 30 uM. In the assay with ATX-II (Alomone Labs), 50 nM ATX-II was included during the 3-min. compound incubation. A square pulse (−10 mV; 400 ms and a holding potential at −100 mV) was run at 1 Hz for 25 s until no further inhibition or Nav1.5 current change was observed. The percent inhibition (expressed as ([Iafter compound treatment/Ibefore compound treatment]×100%) is calculated by normalizing the peak current amplitude at the last pulse of each of the 6 compound concentrations by the amplitude before exposure to the test compound. The compiled data was further normalized by vehicle control (DMSO) to account for Nav1.5 current run-down, and IC50 was calculated by Matlab (MathWorks, USA).

In data set [2] the target is T1, human Nav1.5. In words: Qpatch automated patch-clamp, peak Nav1.5 current inhibition, 5-Hz AF-like assay (holding potential -85 mV). The following applies: CHO-K1 cells stably expressing human Nav1.5, holding potential -85 mV, Table 5, read-out: Nav1.5 IC50 (5 Hz, AF Rate). The format is cell-based. An outline of the steps:
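CHO-K1 cells stably expressing human Nav1.5, whole-cell automated patch-clamp at room temperature, CsF-based internal. Compounds pre-incubated 3 min each at ascending 0-30 μM; +10 to −85 mV ramp (150 ms) applied at 5 Hz for 12 s from −85 mV holding. IC50 from last-pulse peak current, vehicle-normalized for run-down.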

Data set [3] deals with T1, human Nav1.5. The data set is described as follows: Qpatch automated patch-clamp, peak Nav1.5 current inhibition, 1 Hz with 50 nM ATX-II (holding potential -100 mV). The conditions noted are these: CHO-K1 cells stably expressing human Nav1.5, read-out: Nav1.5 IC50 (1 Hz, ATXII). The format is cell-based. The essentials: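 CHO-K1 cells stably expressing human Nav1.5, whole-cell recording at room temperature; 3-min pre-incubation at 0–30 uM ascending, with or without 50 nM ATX-II. Pulses to −10 mV (400 ms) from −100 mV at 1 Hz for 25 s; last-pulse peak current normalized to pre-compound and DMSO run-down, IC50 fitted.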

Data set [4] in a line: Hygroscopicity / water uptake of crystalline forms of Example 1. Format: physicochemical. The following applies: for hygroscopicity: crystalline form.

T1 sequence (Q14524 whole entry): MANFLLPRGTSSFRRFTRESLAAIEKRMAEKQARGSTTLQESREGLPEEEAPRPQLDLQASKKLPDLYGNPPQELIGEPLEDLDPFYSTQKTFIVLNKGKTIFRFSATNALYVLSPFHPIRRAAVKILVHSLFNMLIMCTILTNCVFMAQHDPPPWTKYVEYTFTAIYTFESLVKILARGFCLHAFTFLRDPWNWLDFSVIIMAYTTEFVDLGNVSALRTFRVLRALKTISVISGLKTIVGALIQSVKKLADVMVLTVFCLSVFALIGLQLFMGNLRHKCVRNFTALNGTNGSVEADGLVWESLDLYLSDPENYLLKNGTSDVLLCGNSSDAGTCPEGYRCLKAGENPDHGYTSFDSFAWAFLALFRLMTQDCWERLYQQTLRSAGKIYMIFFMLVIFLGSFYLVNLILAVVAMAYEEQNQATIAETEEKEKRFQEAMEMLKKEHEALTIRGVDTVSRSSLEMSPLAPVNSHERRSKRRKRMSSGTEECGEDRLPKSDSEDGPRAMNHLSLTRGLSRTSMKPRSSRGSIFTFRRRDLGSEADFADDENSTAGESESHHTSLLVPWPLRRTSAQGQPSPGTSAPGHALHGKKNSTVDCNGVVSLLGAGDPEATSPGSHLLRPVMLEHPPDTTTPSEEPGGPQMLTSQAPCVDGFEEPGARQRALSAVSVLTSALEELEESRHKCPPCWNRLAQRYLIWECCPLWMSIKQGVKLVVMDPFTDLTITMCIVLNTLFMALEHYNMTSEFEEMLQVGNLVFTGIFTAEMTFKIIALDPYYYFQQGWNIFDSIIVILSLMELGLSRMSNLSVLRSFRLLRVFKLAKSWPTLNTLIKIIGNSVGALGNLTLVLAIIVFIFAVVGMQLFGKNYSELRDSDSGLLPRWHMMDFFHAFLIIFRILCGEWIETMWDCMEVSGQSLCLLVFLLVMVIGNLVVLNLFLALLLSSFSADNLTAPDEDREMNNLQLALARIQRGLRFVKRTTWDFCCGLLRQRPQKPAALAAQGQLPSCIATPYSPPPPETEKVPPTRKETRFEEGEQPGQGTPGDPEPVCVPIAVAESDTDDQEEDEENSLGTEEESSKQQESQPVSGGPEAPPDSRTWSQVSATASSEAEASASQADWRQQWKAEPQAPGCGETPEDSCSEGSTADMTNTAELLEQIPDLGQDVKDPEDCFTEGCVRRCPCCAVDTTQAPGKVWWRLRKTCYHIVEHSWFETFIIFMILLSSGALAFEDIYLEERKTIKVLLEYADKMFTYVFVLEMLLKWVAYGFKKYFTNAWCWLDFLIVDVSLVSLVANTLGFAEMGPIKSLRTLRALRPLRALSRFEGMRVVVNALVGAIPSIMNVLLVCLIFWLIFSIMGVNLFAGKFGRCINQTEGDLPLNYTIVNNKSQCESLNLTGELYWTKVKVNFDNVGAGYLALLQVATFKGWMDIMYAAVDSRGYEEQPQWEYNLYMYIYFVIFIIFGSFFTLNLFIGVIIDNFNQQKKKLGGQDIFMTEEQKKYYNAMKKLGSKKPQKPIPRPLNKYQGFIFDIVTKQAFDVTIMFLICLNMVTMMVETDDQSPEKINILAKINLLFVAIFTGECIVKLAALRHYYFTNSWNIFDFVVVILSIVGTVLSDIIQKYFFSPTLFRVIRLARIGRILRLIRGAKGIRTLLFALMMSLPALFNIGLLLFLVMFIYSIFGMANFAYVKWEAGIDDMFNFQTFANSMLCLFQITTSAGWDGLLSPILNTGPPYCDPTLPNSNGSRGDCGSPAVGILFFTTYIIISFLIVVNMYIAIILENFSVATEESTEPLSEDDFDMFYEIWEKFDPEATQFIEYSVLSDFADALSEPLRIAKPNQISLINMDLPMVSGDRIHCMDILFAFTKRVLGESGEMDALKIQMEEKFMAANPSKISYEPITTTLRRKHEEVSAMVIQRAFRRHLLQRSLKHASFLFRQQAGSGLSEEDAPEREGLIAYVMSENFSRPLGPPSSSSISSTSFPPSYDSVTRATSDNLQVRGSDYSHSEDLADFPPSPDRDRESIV

Regarding `CC(C(C)(O)c1cccc(-c2nnn(Cc3cc(OC(F)(F)F)ccc3F)n2)n1)S(N)(=O)=O` (single isomer, unassigned) [Example 14, (2R or 2S,3R or 3S)-3-(6-(2-(2-fluoro-5-(trifluoromethoxy)benzyl)-2H-tetrazol-5-yl)pyridin-2-yl)-3-hydroxybutane-2-sulfonamide], the results for the half-inhibitory concentration (IC50) in data set [1], in data set [2] and in data set [3] were over 30 µM, 4 µM and 15 µM, respectively.

`CC(C(C)(O)c1cccc(-c2nnn(Cc3cc(OC(F)(F)F)ccc3F)n2)n1)S(N)(=O)=O` (single isomer, unassigned) [Example 15, (2R or 2S,3R or 3S)-3-(6-(2-(2-fluoro-5-(trifluoromethoxy)benzyl)-2H-tetrazol-5-yl)pyridin-2-yl)-3-hydroxybutane-2-sulfonamide]: the half-maximal inhibitory concentration (IC50) is over 30 µM in data set [1], 4.1 µM in data set [2] and 24 µM in data set [3].

Consider `CC(C(C)(O)c1cccc(-c2nnn(Cc3cc(OC(F)(F)F)ccc3F)n2)n1)S(N)(=O)=O` (single isomer, unassigned) [Example 16, (2R or 2S, 3R or 3S)-3-(6-(2-(2-fluoro-5-(trifluoromethoxy)benzyl)-2H-tetrazol-5-yl)pyridin-2-yl)-3-hydroxybutane-2-sulfonamide], for which the IC50 in data set [1] amounted to 16 µM; in data set [2], 2.8 µM; in data set [3], 4.8 µM.

Consider `CC(O)(CS(N)(=O)=O)c1cc(F)cc(-c2nnn(Cc3cc(OC(F)(F)F)ccc3F)n2)c1` (single isomer, unassigned) [Example 23, (R or S)-2-(3-fluoro-5-(2-(2-fluoro-5-(trifluoromethoxy)benzyl)-2H-tetrazol-5-yl)phenyl)-2-hydroxypropane-1-sulfonamide], for which the half-maximal inhibitory concentration (IC50) in data set [1] is over 30 µM; in data set [2] it was 5.6 µM; in data set [3] it was over 30 µM.

With `CC(O)(CS(N)(=O)=O)c1cc(F)cc(-c2nnn(Cc3cc(OC(F)(F)F)ccc3F)n2)c1` (single isomer, unassigned) [Example 24, (R or S)-2-(3-fluoro-5-(2-(2-fluoro-5-(trifluoromethoxy)benzyl)-2H-tetrazol-5-yl)phenyl)-2-hydroxypropane-1-sulfonamide], the results for the half-maximal inhibitory concentration (IC50) in data set [1], in data set [2] and in data set [3] were over 30 µM, 2 µM and 7.8 µM, respectively.

Consider `CC(O)(CS(N)(=O)=O)c1nc(-c2nnn(Cc3cc(OC(F)(F)F)ccc3F)n2)ccc1F` (single isomer, unassigned) [Example 44, (R or S)-2-(3-fluoro-6-(2-(2-fluoro-5-(trifluoromethoxy)benzyl)-2H-tetrazol-5-yl)pyridin-2-yl)-2-hydroxypropane-1-sulfonamide], for which the concentration for half-maximal inhibition (IC50) in data set [1] is over 30 µM; in data set [2], 4.6 µM; in data set [3], 19 µM.

For `CC(O)(CS(N)(=O)=O)c1nc(-c2nnn(Cc3cc(OC(F)(F)F)ccc3F)n2)ccc1F` (single isomer, unassigned) [Example 45, (R or S)-2-(3-fluoro-6-(2-(2-fluoro-5-(trifluoromethoxy)benzyl)-2H-tetrazol-5-yl)pyridin-2-yl)-2-hydroxypropane-1-sulfonamide], the IC50 is over 30 µM in data set [1], 4.8 µM in data set [2] and over 30 µM in data set [3].

On to `CC(O)(CS(N)(=O)=O)c1cccc(-c2nnn(Cc3cc(OC4CC4)ccc3F)n2)n1` (single isomer, unassigned) [Example 46, (R or S)-2-(6-(2-(5-cyclopropoxy-2-fluorobenzyl)-2H-tetrazol-5-yl)pyridin-2-yl)-2-hydroxypropane-1-sulfonamide], for which the IC50 in data set [1] is over 30 µM; in data set [2], 8.3 µM; in data set [3], over 30 µM.

Take `CC(O)(CS(N)(=O)=O)c1cccc(-c2nnn(Cc3cc(OC4CC4)ccc3F)n2)n1` (single isomer, unassigned) [Example 47, (R or S)-2-(6-(2-(5-cyclopropoxy-2-fluorobenzyl)-2H-tetrazol-5-yl)pyridin-2-yl)-2-hydroxypropane-1-sulfonamide]: the 50% inhibitory concentration (IC50) in data set [1] turned out to be 27 µM; in data set [2], 3.9 µM; in data set [3], 13 µM.

As to `CC(C(O)c1cccc(-c2nnn(Cc3cc(OC(F)(F)F)ccc3F)n2)n1)S(N)(=O)=O` (single isomer, unassigned) [Example 52, (JR or 1S,2R or 2S)-1-(6-(2-(2-fluoro-5-(trifluoromethoxy)benzyl)-2H-tetrazol-5-yl)pyridin-2-yl)-1-hydroxypropane-2-sulfonamide], the half-maximal inhibitory concentration (IC50) in data set [1] was determined as 49 µM; in data set [2], 2.9 µM; in data set [3] it was 22 µM.

For the molecule `C[C@](O)(CS(N)(=O)=O)c1cccc(-c2nnn(Cc3cc(OC(F)(F)F)ccc3F)n2)n1` [Example 1, (R)-2-(6-(2-(2-fluoro-5-(trifluoromethoxy)benzyl)-2H-tetrazol-5-yl)pyridin-2-yl)-2-hydroxypropane-1-sulfonamide], the IC50 in data set [1] is 22 µM; in data set [2], 3.1 µM; in data set [3], 19 µM.

For the molecule `C[C@](O)(CS(N)(=O)=O)c1cccc(-c2nnn(Cc3cc(OC(F)(F)F)ccc3F)n2)n1` [Modification A-1, (R)-2-(6-(2-(2-fluoro-5-(trifluoromethoxy)benzyl)-2H-tetrazol-5-yl)pyridin-2-yl)-2-hydroxypropane-1-sulfonamide], the reversible water uptake entry in data set [4] (at 90% relative humidity) is reported as “about 0.10%”. In addition, the hygroscopicity entry in data set [4] is “not hygroscopic”.

`C[C@](O)(CS(N)(=O)=O)c1cccc(-c2nnn(Cc3cc(OC(F)(F)F)ccc3F)n2)n1` [Modification A-2, (R)-2-(6-(2-(2-fluoro-5-(trifluoromethoxy)benzyl)-2H-tetrazol-5-yl)pyridin-2-yl)-2-hydroxypropane-1-sulfonamide]: in data set [4], the hygroscopicity result was “hygroscopic and shows gel formation at 70% relative humidity and above”.

In the case of `C[C@](O)(CS(N)(=O)=O)c1cccc(-c2nnn(Cc3cc(OC(F)(F)F)ccc3F)n2)n1` [Modification A-3, (R)-2-(6-(2-(2-fluoro-5-(trifluoromethoxy)benzyl)-2H-tetrazol-5-yl)pyridin-2-yl)-2-hydroxypropane-1-sulfonamide], in data set [4], the hygroscopicity result was “hygroscopic and shows gel formation at 70% relative humidity and above”.
